Assays:
[1] = system: Hepg 2 cells; experiment: Slide in situ hybridization, DMSO plus one additional compound (Example 2), HYR probe; type: cell-based, human; conditions: 10% (v/v) additional compound with 9% DMSO; slide rating x 0.5, water control = 2; average of four experiments
Method: Slide in situ Cell Preparation and Hybridization Protocol
1) Cells were suspended in a fixative (3 vol ethanol plus 1 vol methanol) and transferred to glass slides by centrifugation using a Cytospin apparatus.
2) The assay solution (consisting of the hybridization cocktail HC alone or mixed with a compound or compounds being tested as an enhancer) with the DNA probe (25 ul) was placed over the cells and covered with a coverslip.
3) The slide was heated at 90° C. for 5 minutes for DNA denaturation, then incubated at 46° C. for 30 minutes for hybridization.
4) Cells were washed once with the wash solution #1, which was equilibrated at 42° C. Then cells were washed ten times with wash solution #2, which was equilibrated at 42° C.
5) Mounting solution (50% glycerol (v/v) in 1×PBS plus the nuclear stain Hoechst, (#33258; 1 ug/ml) was placed on the cells and covered with a coverslip.
6) The hybridization signal was observed under an Olympus BH10 microscope with fluorescent capabilities using a rhodamine derivative filters (excitation wavelength of 567 nm, emission wavelength of 584 nm).
The inclusion of DMSO in an in situ assay solution increased the permeation of the nucleic acid probes into the cells and gave hybridization signal in over 95% of the cells. In this Example, we show the effect of adding, in addition to DMSO, 10 percent (v/v) of an additional compound to the assay solution. The additional compounds added were: squalane (an aliphatic alkane), dodecyl alcohol (an alcohol), beta-cyclodextrin (a sugar), isopropyl palmitate (a fatty acid ester), 1,2, propanediol (an alcohol), pyrrolidinone (a lactam) and hexamethyldisiloxane (an organic silane).
In this Example, the hybridization cocktail consisted of nine volumes of HC-DMSO plus one volume of an additional compound. In the control sample, one volume of water was added instead of one volume of additional compound. As a result, in all samples, the concentration of DMSO in the cocktail was 9 percent (v/v).
The Slide In Situ Cell Preparation and Hybridization protocol was followed. The cells used were Hepg 2 cells. The probe used was an HYR probe specific for human Y chromosome α-satellite DNA repeated sequences; at its 5' end, via an Aminolink linker molecule, the probe was linked to a Texas Red moiety. A signal intensity of 4 was assigned to the slide in which the assay solution was HC plus 10% DMSO (control slide) and all other slides were rated 1, 2, 3 or 4 in comparison to the control slide, depending on whether the intensity was 1, 2, 3, or 4 times that of the control slide, respectively.
The results are an average of four independent experiments.

[2] = system: α-satellite DNA; experiment: Liquid in situ hybridization with flow cytometry, DMSO plus squalane plus additional compound (Example 5), α-satellite DNA and NR probes; type: cell-based; conditions: for NR Probe, mean LFL1: DMSO-only control 0.175; for α-SAT Probe, mean LFL1: DMSO-only control 3.829; for Ratio α-SAT/NR (ratio of mean LFL1): DMSO-only control 22; for Increase of DNA probe signal intensity compared to 9% DMSO alone: DMSO plus squalane plus the additional compound
Description: (§1) A Coulter Profile II flow cytometer was used for flow cytometry. With FITC as the probe dye, the filter for LFL3 was a 635 nm long pass filter and the filter for LFL1 was a 540 bp filter; the excitation wavelength was 488 nm. PMT1 and PMT3 settings were adjusted as required. A typical useful setting when fluorescein is the dye moiety is to have a PMT1 setting of 1100, a PMT3 setting of 900, and color compensation (PMT1, PMT3) of 15 percent.
(§2) Liquid in Situ Cell Preparation and Hybridization Protocol
(§3) 1. Cells were fixed in solution F, then resuspended in 2x SSC.
(§4) 2. The cells were spun out of solution and resuspended in an assay solution (consisting of the hybridization cocktail HC alone or in combination with a compound or compounds being tested as an enhancer.)
(§5) 3. After 30 min. at 42° C., the cells were washed in wash solution #1 preheated to 42° C. by centrifuging them out of the assay solution.
(§6) 4. Cells were next washed in wash solution #2 preheated to 42° C.
(§7) 5. Cells were resuspended in a 1X PBS solution containing 0.002% trypan blue as a counterstain.
(§8) 6. Cells were run on a flow cytometer and a "Count vs. LFL1" histogram was generated. ("Count" refers to cell count.) This histogram was used as the basis for determining the mean LFL1.
The Liquid In Situ Cell Preparation and Hybridization Protocol was followed.
The "α-satellite" DNA probe is a target specific probe specific α-satellite DNA. Fluorescence obtained with it represents the sum of fluorescence from target-bound probe, non-specifically bound probe and autofluorescence from cellular molecules.
The effect of a combination of DMSO and squalane on the probe signal was measured as was that combination further enhanced with a third compound.
In this Example, in all but two cases, the hybridization cocktail consisted of 9 volumes of HC-DMSO, a half volume of squalane, and a half volume of an additional compound. In one case, the additional compound was replaced by water, so that the hybridization compound consisted of 9 volumes of HC-DMSO, a half volume of squalane, and a half volume of water. In the control sample, the cocktail consisted of nine volumes of HC-DMSO and one volume of water. As a result, in all samples, there was 9 percent DMSO (v/v). When present, squalane was present at 5 percent. When present, the additional compound was present at 5%.
The ratio, α-SAT/NR, is the ratio of the mean LFL1 for the α-satellite DNA probe ([…]) to the mean LFL1 for the NR probe.

[3] = system: Human female white blood cells (karyotype XX); experiment: Signal enhancers in the mounting solution after in situ hybridization (Example 6), HXR probes, fluorescent microscope; type: cell-based; conditions: one volume compound plus 9 volumes mounting solution; rhodamine HXR probes; water control = 1
Method: After the in situ hybridization step, the cells were washed and then modified mounting solution was added and cells were observed under the microscope for fluorescence signal. Modified mounting solution was 9 volumes of mounting solution and one volume of additional compound, which was the compound being tested for its ability to be a signal enhancer. Mounting solution consisted of 0.1% 1,4 diphenylamine (antifade) in 50% glycerol (v/v), and nuclear stain Hoechst (#33258; 1 ug/ml).
Human female white blood cells (karyotype XX) were hybridized at 85° C. for 15 minutes with female chromosome HXR probes labelled with a rhodamine fluor. Cells were washed with wash buffers #1 and #2, and then suspended in a modified mounting solution. The additional compound in the modified mounting solution was varied; as a control, water was used as the additional compound. The signal intensity was observed under the fluorescent microscope.

[4] = system: Hela cells; experiment: Liquid in situ hybridization with flow cytometry, DMSO plus additional compound (Example 4), 28S RNA and NR probes; type: cell-based; conditions: for 28S RNA Probe, mean LFL1 / NR Probe, mean LFL1 / Ratio 28S RNA/NR (ratio of mean LFL1): 10% additional compound with 9% DMSO; for 28S RNA Probe, mean LFL1: FITC 28S RNA probe, water control 6.070, average of four experiments; for NR Probe, mean LFL1: FITC NR probe (non-specific binding and autofluorescence), water control 0.137; for Ratio 28S RNA/NR (ratio of mean LFL1): water control 44; for Signal brightness compared to nine percent DMSO alone: additional compound in combination with nine percent DMSO; for Signal intensity after precipitation (biphasic mixture): 10 percent compound with 9% DMSO
Description: as §1, §2, §3, §4, §5, §6, §7, §8
The effect on probe signal intensity of adding, in addition to DMSO, additional compounds to the assay solution was determined in an in situ liquid hybridization assay. The data was analyzed by flow cytometry.
The Liquid In Situ Cell Preparation and Hybridization Protocol was followed. The cells used were Hela cells. The probes used were a 28S RNA probe (SEQ ID NO: 1) and an NR probe.
The 28S RNA probe (SEQ ID NO: 1) is a target-specific probe specific for ribosomal RNA fluorescence obtained with it represents the sum of fluorescence from target-bound probe, non-specifically bound probe and autofluorescence from cellular molecules. The NR probe (SEQ ID NO: 2) is specific for a plant nucleic acid sequence and, in the current Example, the fluorescence obtained with it represent the sum of fluorescence from non-specifically bound probe and autofluorescence.
(§9) In this experiment, the hybridization cocktail consisted of nine volumes of HC-DMSO plus one volume of additional compound. In the control sample, one volume of water replaced the one volume of additional compound. As a result, in all samples, the concentration of DMSO was 9 percent (v/v).
The ratio, 28S/NR, is the ratio of the mean LFL1 observed with the 28S RNA probe (SEQ ID NO: 1) to the mean LFL1 observed with the NR probe (SEQ ID NO: 2). The results in the "28S RNA probe" and "NR probe" columns give the mean LFL1 observed with the 28S RNA and NR probes, respectively (SEQ ID NO: 1 and SEQ ID NO: 2, respectively).

[5] = Precipitation of additional compound from the hybridization cocktail (Example 4); type: physicochemical; conditions: 10 percent in hybridization cocktail (HC-DMSO)
Description: as §9

[6] = 5% additional compound with 5% squalane and 9% DMSO
[7] = 5% squalane with 9% DMSO, water instead of additional compound

## CC(O)CO (stereo not drawn) [1,2-propanediol]
[1]
  Fluorescent signal (Scale of 1 to 4): 2
[2]; [6]
  NR Probe, mean LFL1: 0.151
  α-SAT Probe, mean LFL1: 5.876
  Ratio α-SAT/NR (ratio of mean LFL1): 39
[2]
  Increase of DNA probe signal intensity compared to 9% DMSO alone: 1,8 fold
[3]
  Signal Intensity Scale of 1 to 4: 4
[4]
  28S RNA Probe, mean LFL1: 8.227
  NR Probe, mean LFL1: 0.148
  Ratio 28S RNA/NR (ratio of mean LFL1): 56
  Signal brightness compared to nine percent DMSO alone: increased the signal brightness

## O=C1CCCN1 [2-pyrrolidinone]
[1]
  Fluorescent signal (Scale of 1 to 4): 2
[2]; [6]
  NR Probe, mean LFL1: 0.135
  α-SAT Probe, mean LFL1: 10.38
  Ratio α-SAT/NR (ratio of mean LFL1): 77
[2]
  Increase of DNA probe signal intensity compared to 9% DMSO alone: 3.5 fold
[3]
  Signal Intensity Scale of 1 to 4: 3
[4]
  28S RNA Probe, mean LFL1: 10.19
  NR Probe, mean LFL1: 0.133
  Ratio 28S RNA/NR (ratio of mean LFL1): 77
  Signal brightness compared to nine percent DMSO alone: increased the signal brightness

## OC[C@H]1O[C@@H]2O[C@H]3[C@H](O)[C@@H](O)[C@@H](O[C@H]4[C@H](O)[C@@H](O)[C@@H](O[C@H]5[C@H](O)[C@@H](O)[C@@H](O[C@H]6[C@H](O)[C@@H](O)[C@@H](O[C@H]7[C@H](O)[C@@H](O)[C@@H](O[C@H]8[C@H](O)[C@@H](O)[C@@H](O[C@H]1[C@H](O)[C@H]2O)O[C@@H]8CO)O[C@@H]7CO)O[C@@H]6CO)O[C@@H]5CO)O[C@@H]4CO)O[C@@H]3CO [beta-cyclodextrin]
[1]
  Fluorescent signal (Scale of 1 to 4): 1.5
[2]; [6]
  NR Probe, mean LFL1: 0.131
  α-SAT Probe, mean LFL1: 3.720
  Ratio α-SAT/NR (ratio of mean LFL1): 29
[4]
  28S RNA Probe, mean LFL1: 9.593
  NR Probe, mean LFL1: 0.135
  Ratio 28S RNA/NR (ratio of mean LFL1): 71
  Signal brightness compared to nine percent DMSO alone: increased the signal brightness

## C[Si](C)(C)O[Si](C)(C)C [hexamethyldisiloxane]
[1]
  Fluorescent signal (Scale of 1 to 4): 1
[3]
  Signal Intensity Scale of 1 to 4: 2
[4]
  28S RNA Probe, mean LFL1: 7.426
  NR Probe, mean LFL1: 0.126
  Ratio 28S RNA/NR (ratio of mean LFL1): 59
  Signal brightness compared to nine percent DMSO alone: increased the signal brightness

## CCCCCCCCCCCCCCCC(=O)OC(C)C [isopropyl palmitate]
[1]
  Fluorescent signal (Scale of 1 to 4): 1.5
[2]; [6]
  NR Probe, mean LFL1: 0.117
  α-SAT Probe, mean LFL1: 5.988
  Ratio α-SAT/NR (ratio of mean LFL1): 52
[2]
  Increase of DNA probe signal intensity compared to 9% DMSO alone: 2.4 fold
[3]
  Signal Intensity Scale of 1 to 4: 4
[4]
  28S RNA Probe, mean LFL1: 8.057
  NR Probe, mean LFL1: 0.140
  Ratio 28S RNA/NR (ratio of mean LFL1): 58
  Signal brightness compared to nine percent DMSO alone: increased the signal brightness

## CCCCCCCC/C=C\CCCCCCCC(=O)O [oleic acid]
[1]
  Fluorescent signal (Scale of 1 to 4): 2
[4]
  28S RNA Probe, mean LFL1: 3.643
  NR Probe, mean LFL1: 0.142
  Ratio 28S RNA/NR (ratio of mean LFL1): 26

## CCCCCCCC/C=C\CCCCCCCCO [oleyl alcohol]
[1]
  Fluorescent signal (Scale of 1 to 4): 1.5
[5]
  Precipitation from solution: precipitation from solution
[3]
  Signal Intensity Scale of 1 to 4: 3
[4]
  28S RNA Probe, mean LFL1: 0.731
  NR Probe, mean LFL1: 0.136
  Signal intensity after precipitation (biphasic mixture): markedly decreased

## CC(C)CCCC(C)CCCC(C)CCCCC(C)CCCC(C)CCCC(C)C (stereo not drawn) [squalane]
[1]
  Fluorescent signal (Scale of 1 to 4): 2
[5]
  Precipitation from solution: precipitation from solution
[2]; [7]
  NR Probe, mean LFL1: 0.125
  α-SAT Probe, mean LFL1: 4.604
  Ratio α-SAT/NR (ratio of mean LFL1): 37
[2]; squalane plus DMSO
  Increase of DNA probe signal intensity compared to DMSO alone: 1.68 fold
[3]
  Signal Intensity Scale of 1 to 4: 3
[4]
  28S RNA Probe, mean LFL1: 0.611
  NR Probe, mean LFL1: 0.123
  Signal intensity after precipitation (biphasic mixture): markedly decreased

## CC(C)=CCC/C(C)=C/CC/C(C)=C/CC/C=C(\C)CC/C=C(\C)CCC=C(C)C [squalene]
[3]
  Signal Intensity Scale of 1 to 4: 3

## hydroxypropylcyclodextrin
[3]
  Signal Intensity Scale of 1 to 4: 2

Source: patent US5521061A, “Enhancement of probe signal in nucleic acid-mediated in-situ hybridization studies” (Aprogenex, Inc., priority 1992, dated 1996)
